We go through two compounds from publication PMC6563076 (2019).

As usually defined, the ΔTm is the shift of the melting midpoint relative to a reference.

Test [1] concerns F10T (DNA, hairpin, hexaethylene glycol (HEG) linker between 10 and 11) TATAGCTATATATAGCTATA
The test is described as follows: FRET melting. The note with it: 10 mM KCl, 90 mM LiCl; 1 μM ligand, 200 nM DNA, 10 mM Li cacodylate; ΔT1/2 used as ΔTm.

In test [2] the test system is telo23 (DNA, G4) TAGGGTTAGGGTTAGGGTTAGGG
The test can be described thus: 1H NMR. To be noted: Na+ (25 mM sodium phosphate, 70 mM NaCl); pH 7.0, 298 K, 175 µM DNA, 2 equivalents ligand; imino signals lost.

Test [3] concerns telo22 (DNA, G4) AGGGTTAGGGTTAGGGTTAGGG
The test is described as follows: CD titration. The note with it: Na+ (100 mM sodium phosphate); pH 7.4; conformational change similar to telo23.

Test [4] relates to FmycT (DNA, G4) TTGAGGGTGGGTAGGGTGGGTAA
The test is described as follows: FRET melting. The note with it: 1 mM KCl, 99 mM LiCl; 1 μM ligand, 200 nM DNA, 10 mM Li cacodylate; ΔT1/2 used as ΔTm.

Test [5] relates to telo23 (DNA, G4) TAGGGTTAGGGTTAGGGTTAGGG
The test is described as follows: CD titration. The note with it: pH 7.4, 20 °C, 4.22 µM DNA.

Test [6] relates to F21T (DNA, G4) GGGTTAGGGTTAGGGTTAGGG
The test can be described thus: FRET melting. The note with it: 1 μM ligand, 200 nM DNA, 10 mM Li cacodylate, ΔT1/2 used as ΔTm.

For `C[n+]1ccc(-c2ccc3c(c2)/C(=C2\CCc4ccc(-c5cc[n+](C)cc5)cc42)CC3)cc1`, the thermal shift (ΔTm) amounted to 0.8±0.2 °C in test [1]; 15.8±0.8 °C in test [4]; 21.4±0.3 °C in test [6] (10 mM KCl, 90 mM LiCl); 11.8±0.6 °C in test [6] (100 mM NaCl). The binding result in test [2] is on record as “yes”; in test [3], “yes”; in test [5] (K+ (100 mM potassium phosphate), no conformational change, ICD seen) it was “yes”; in test [5] (Na+ (100 mM sodium phosphate), ligand unfolds the G4) it was “yes”.

As to `C[n+]1ccc(-c2ccc3c(c2)/C(=C2/CCc4ccc(-c5cc[n+](C)cc5)cc42)CC3)cc1`, the thermal shift (ΔTm) stood at 0.1 ± 0.1 °C in test [1]; 5.1 ± 1.4 °C in test [4]; 9.7 ± 0.5 °C in test [6] (10 mM KCl, 90 mM LiCl); 5.4 ± 1.0 °C in test [6] (100 mM NaCl).
